In one series the target is Bradykinin B1 (Homo sapiens, UniProt P46663). Briefly: Eurofins panel 212510. Type of series: binding.
In a further series the target is Interleukin IL-1 (Mus musculus, UniProt P13504). Put plainly: Eurofins panel 243520. Type of series: binding.
In the next series the target is Endothelin ETB (Homo sapiens, UniProt P24530). Briefly: Eurofins panel 224110. Type of series: binding.
For series [1], the system named is primary human fibroblasts. Put plainly: Collagen crosslinking in vitro, scar-in-a-jar, LC-MS/MS. Type of series: cell-based. Also noted: PYD: unit not given beside the values; HLNL / DHLNL / DPD: unit not given here. Particulars: 11 days, biological replicates. On the procedure:
To determine the effects of PXS-4787 on collagen cross-link formation, primary human fibroblasts from six different participants (six biological replicates) were cultured for 11 days using ‘scar-in-a-jar’ conditions in the presence of 0, 1, and 10 µM of inhibitor. Liquid chromatography with tandem mass spectrometry (LC-MS/MS) was used to measure hydroxyproline and cross-link concentrations in these samples. Hydroxyproline concentration provides a close estimate of collagen concentration as it is present in high concentrations in collagens and is critical to fibril formation.
Primary scar fibroblasts were seeded in a complete media at density 75 × 10^4 cells per well in a T-25 tissue culture flask at 37 °C and 5% CO2. After 16 h the complete media was replaced by the stimulated media ([…] Ficoll 70 and (25 mg/ mL) Ficoll 400, 5 ng/mL TGF-β1, 0.5% FBS, […] L-ascorbic acid-2-phosphate) in DMEM-Glutamax™ supplemented with 0.5% FBS and 1% Penicillin/ Streptomycin and 1 and 10 µM concentrations of PXS-4787 for 11 days to allow time for sufficient crosslinking of extracellular collagen. After 11 days, the media was aspirated and cells were trypsinized for 30 min and reduced with 12 mg/mL Sodium Borohydride in 20 mM Sodium Hydroxide solution followed and incubated for 30 min at room temperature. The pH of the solution was made acidic using 50 µL of neat acetic acid. The solution was centrifuged at 20,000g for 15 min at 4 °C followed by three washes with MilliQ water and samples processed for crosslinking analysis.
Cell pellets or isolated tissue samples were completely hydrolyzed in 1.5 mL 6 M hydrochloric acid for 24 h at 105 °C. After complete hydrolysis, samples were dried using a vacuum dryer and reconstituted using 200 µL MilliQ water. The sample clean-up was performed using solid-phase extraction method which uses C18 and SCX solid-phase extraction cartridges for sample purification. The samples were run on UPLC-MS-MS (Mass Spectrometer: Thermo Scientific TSQ Endura Triple quadrupole, UPLC: Thermo Scientific Dionex UltiMate 3000) using Agilent RRHD SB-C18,2.1x50mm,1.8um analytical column and solvent A: 10 mM ammonium formate, 0.1% formic acid, 0.1% HFBA in H2O and solvent B: 10 mM ammonium formate, 0.1% formic acid, 0.1% HFBA in MeOH and analyzed as previously described. Limits of detection are listed in Supplementary Table S4.

Series [2] relates to Glutamate, NMDA, Phencyclidine. Put plainly: Eurofins panel 233000. Particulars: 10 µM. It is filed as binding, rat.
Series [3] can be described thus: Rat pharmacokinetic-pharmacodynamic model, skin concentration. It is filed as in vivo. Particulars: topical; for concentration at 24 h after the last dose: 24 h after last dose; for concentration at 24 h: 500 mg on 16 cm^2, 24 h. How it is done:
PXS-6302 was formulated as an oil in water cream of different concentrations (0, 0.3, 1, 10%) and applied to a shaved area on the back of a rat (500 mg cream applied to 16 cm^2). After 24 h animals were sacrificed, the concentration of PXS-6302 in the skin was measured and the lysyl oxidase activity determined.
To investigate the effect of repeat dosing, cream at different concentrations (0, 0.5, 1, and 3% PXS-6302, 400 mg applied to 16 cm^2) was applied once daily for 5 consecutive days and 24 h after the last dose, animals were sacrificed and the skin concentration determined.
PXS-6302 was formulated as an oil in water cream of different concentrations (0, 0.3, 1, 10%) and applied to a shaved area on the back of an adult rat (500 mg cream applied to 16 cm^2 skin surface area). After 24 h animals were euthanased. For the detection of lysyl oxidase activity in the skin, epidermal and dermal layers of the skin were dissected, pre-cooled with liquid nitrogen and pulverized. Samples were washed by homogenization with ice-cold wash buffer (0.15 M NaCl, 50 mM sodium borate, pH 8.0 with 0.25 mM PMSF and 1 µL/mL bovine aprotinin as protease inhibitors) at 100 µL/mg, centrifuged at 10,000 × g for 10 min at 4 °C and supernatant discarded. After the final washing step, the pellet was resuspended in extraction buffer (6 M urea, 50 mM sodium borate, pH 8.2 with 0.25 mM PMSF and 1 µL/mL aprotinin as protease inhibitors) with ratio of buffer volume to tissue weight at 4:1. After a 3 h incubation at 4 °C, the mixture was diluted 1:2 with assay buffer containing 50 mM sodium borate (pH 8.2), centrifuged at 20,000 × g for 20 min at 4 °C. The collected supernatant was spiked with pargyline hydrochloride and mofegiline hydrochloride at final concentrations of 0.5 mM and 1 µM, respectively, to inhibit amine oxidases. Lysyl oxidase activity was measured as previously described. The concentration of PXS-6302 in the skin was also measured in the same samples using LCMSMS as described for Franz cell diffusion assay.

Usually inhibition stands for the change of the read-out against control, counted positive when it falls.

“And” between values parts separate entries of the source, which are not always exact repeats. Equal values may be shown once.

Sequence of Interleukin IL-1 (P13504 20-576): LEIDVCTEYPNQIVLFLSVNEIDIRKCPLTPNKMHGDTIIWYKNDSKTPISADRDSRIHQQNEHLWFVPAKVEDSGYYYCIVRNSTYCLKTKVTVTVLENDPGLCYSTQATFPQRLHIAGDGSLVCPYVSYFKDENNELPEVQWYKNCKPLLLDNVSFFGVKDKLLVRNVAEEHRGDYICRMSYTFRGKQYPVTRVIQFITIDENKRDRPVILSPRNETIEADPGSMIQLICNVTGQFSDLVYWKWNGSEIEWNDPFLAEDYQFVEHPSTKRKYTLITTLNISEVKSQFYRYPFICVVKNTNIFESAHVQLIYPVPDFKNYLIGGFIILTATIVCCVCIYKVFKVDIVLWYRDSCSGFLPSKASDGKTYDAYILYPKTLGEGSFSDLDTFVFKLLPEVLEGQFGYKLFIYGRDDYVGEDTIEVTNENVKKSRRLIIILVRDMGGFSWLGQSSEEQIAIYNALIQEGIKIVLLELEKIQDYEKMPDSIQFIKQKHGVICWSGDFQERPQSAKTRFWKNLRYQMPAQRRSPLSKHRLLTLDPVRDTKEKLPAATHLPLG
Sequence of Bradykinin B1 (P46663 whole entry): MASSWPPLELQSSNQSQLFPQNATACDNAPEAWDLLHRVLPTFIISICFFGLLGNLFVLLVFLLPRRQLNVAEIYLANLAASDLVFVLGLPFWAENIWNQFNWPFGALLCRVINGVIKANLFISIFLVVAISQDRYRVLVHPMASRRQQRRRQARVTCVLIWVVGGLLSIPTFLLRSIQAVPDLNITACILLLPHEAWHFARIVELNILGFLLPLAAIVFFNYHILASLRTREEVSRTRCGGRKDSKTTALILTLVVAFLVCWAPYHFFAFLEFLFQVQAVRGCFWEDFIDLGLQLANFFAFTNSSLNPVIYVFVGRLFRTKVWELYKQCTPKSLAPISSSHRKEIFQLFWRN
Sequence of Endothelin ETB (P24530 27-442): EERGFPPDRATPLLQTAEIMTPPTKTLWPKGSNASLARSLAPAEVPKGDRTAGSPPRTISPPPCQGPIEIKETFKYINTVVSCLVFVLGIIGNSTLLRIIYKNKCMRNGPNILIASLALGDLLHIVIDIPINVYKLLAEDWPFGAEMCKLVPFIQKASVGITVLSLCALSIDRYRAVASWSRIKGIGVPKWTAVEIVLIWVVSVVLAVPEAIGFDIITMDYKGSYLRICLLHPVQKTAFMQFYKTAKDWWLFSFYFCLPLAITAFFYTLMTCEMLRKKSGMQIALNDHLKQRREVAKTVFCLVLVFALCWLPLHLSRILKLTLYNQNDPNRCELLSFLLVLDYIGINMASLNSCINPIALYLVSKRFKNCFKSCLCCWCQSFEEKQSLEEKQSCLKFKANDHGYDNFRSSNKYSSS

`NC/C=C(\F)CS(=O)(=O)c1ccccc1` [PXS-4787]: 10 µM produced 6% inhibition against Bradykinin B1. At Interleukin IL-1, this molecule gave an inhibition at 10 µM of 7%. In addition, at 10 µM the inhibition at Endothelin ETB was 3%. For the same molecule, in series [1] (1 µM), the DHLNL is 143.775 and 329.16 and 113.02 and 83.13 and 359.48 and 365.16 and 104.82; the DPD was 2.93 and 49.66 and 7.64 and 1.83 and 44.6 and 15.94 and 5.96; the HLNL is 2792.14 and 4779.62 and 1377.5 and 1440.95 and 5514.92 and 6254.02 and 873.64; the “HYP (hydroxyproline)” value is “did not reduce and 100208 and 1106205 and 113032 and 54746.7 and 1239040 and 1208884 and 155115”. For the same molecule, the PYD in series [1] (1 µM) is 26.445 and 138.7 and 33.16 and 18.555 and 194.48 and 107.58 and 32.22. For the same molecule, in series [1] (10 µM), the DHLNL is 74.25 and 254.16 and 91.76 and 55.65 and 288.12 and 246.36 and 90.12; the DPD was 0 and 24.22 and 4.54 and 21.2 and 6.56 and 3.9; the HLNL result is “trend reduction and 1564.75 and 3443.58 and 1107.32 and 1868.37 and 4501.9 and 4758.54 and 846.68”; the “HYP (hydroxyproline)” value was “significantly (p = 0.0385) diminished and 52523.3 and 888147 and 121381 and 44633 and 1404421 and 949167 and 129547”. Besides, the PYD in series [1] (10 µM) was 5.86 and 65.12 and 17 and 7.95 and 92.68 and 46.62 and 20.6. Further, in series [2], the “% Inh.” value was 8%.

On to `NC/C=C(\F)C(F)(F)S(=O)(=O)c1ccccc1` [PXS-6302], for which the concentration at 24 h after the last dose was found to be 4900 ± 800 ng/g in series [3] (400 mg of 0.5% cream on 16 cm^2, once daily for 5 days, 0.5% cream 400 mg once daily 5 days); 9300 ± 700 ng/g in series [3] (400 mg of 1% cream on 16 cm^2, once daily for 5 days, 1% cream 400 mg once daily 5 days); 31700 ± 3280 ng/g in series [3] (400 mg of 3% cream on 16 cm^2, once daily for 5 days, 3% cream 400 mg once daily 5 days). For the same molecule, the concentration at 24 h in series [3] (500 mg of 0.3% cream on 16 cm^2, single dose 0.3% cream) amounted to 7900 ± 1500 ng/g; in series [3] (500 mg of 1% cream on 16 cm^2, single dose 1% cream), 8900 ± 1400 ng/g; in series [3] (500 mg of 10% cream on 16 cm^2, single dose 10% cream), 119000 ± 7800 ng/g.

The values above are taken from paper PMC9500072, “Topical application of an irreversible small molecule inhibitor of lysyl oxidases ameliorates skin scarring and fibrosis” (Nature Communications, 2022).
